The source of these data is patent publication US8039510B2, “Methods of making and using theaflavin, theaflavin-3-gallate, theaflavin-3′-gallate and theaflavin 3,3′-digallate and mixtures thereof” (Nashai Biotech, LLC, priority 2001, dated 2011).

The assay has as its system Male Sprague-Dawley rats. The experiment in a line: Lipid profile of rats fed cholesterol diet plus theaflavins or catechin for eight weeks. In kind it is in vivo, rat. Particulars: for HDL / LDL / TC / TG: rat plasma, eight weeks; for reducing plasma levels of TC, LDL-C and TG, compared with catechin: rats. Here is the method:
Male Sprague-Dawley rats weighing 100 g to 130 g were divided into nine groups of ten rats. The animals were individually housed in stainless-steel cages with screen bottoms in a room maintained at between 22° C. and 24° C. They were fed stationary feedstuff and water as follows as described in Table 1. In addition the rats in Group TF1-1, TF1-2 or TF1-3 were fed pure theaflavin in a dosage of 1 mg/kg/day, 2 mg/kg/day and 4 mg/kg/day, respectively. The animals in group TF2A-2, TF2B-2 or RF3-2 were fed pure theaflavin-3-gallate, theaflavin-3′-gallate and theaflavin-3,3′-digallate, respectively in a dosage of 2 mg/kg/day. The animals in group CA-1 and CA-2 were fed catechins in a dosage of 1 mg/kg/day or 2 mg/kg/day, respectively.
The Sprague Dawley rats were fed the above diets for eight weeks before sampling. The rats were not fed for 12 hours prior to sampling. The rats were given either theaflavin, theaflavin-3-gallate, theaflavin-3′-gallate, theaflavin-3,3′-digallate or catechin one hour in advance of collecting the blood sample.

Where [1] appears, read: group TF1-3: 4 mg/kg/day per text (Table 1 prints 3).

Turning to `O=C(O[C@@H]1Cc2c(O)cc(O)cc2O[C@@H]1c1cc(=O)c(O)c2c(O)c(O)cc([C@H]3Oc4cc(O)cc(O)c4C[C@H]3O)c2c1)c1cc(O)c(O)c(O)c1` [theaflavin-3-gallate], the “reducing plasma levels of TC, LDL-C and TG, compared with catechin” value (“reducing plasma levels of TC” for short) is given as “more effective”. In addition, where the note is “2 mg/kg/day”, the HDL is 49.2 ± 1.9^3, the LDL is reported as 32.2 ± 3.7^1, the TC was 97.3 ± 8.4^1 and the TG was 95.7 ± 10.5^1.
In the same order, the values of theaflavin-3,3′-digallate are “more effective”, 49.3 ± 1.9^3, 31.2 ± 4.1^1, 95.5 ± 7.4^1 and 95.36 ± 9.2^1.
Consider `O=c1c(O)cc([C@H]2Oc3cc(O)cc(O)c3C[C@H]2O)cc2c([C@H]3Oc4cc(O)cc(O)c4C[C@H]3O)cc(O)c(O)c12` [theaflavin], for which the “reducing plasma levels of TC” value was “more effective”. For the setting “1 mg/kg/day”, the HDL is reported as 48.8 ± 1.7^3, the LDL was 45.6 ± 3.1^1 and the TC is 116.3 ± 8.2^1. Besides, the TG (1 mg/kg/day, mean ± spread) is given as 108.1 ± 13.8^2. Where the note is “2 mg/kg/day”, the HDL is 49.2 ± 2.1^3, the LDL is 34.6 ± 3.7^1, the TC is 101.3 ± 7.9^1 and the TG was 97.4 ± 11.6^1. In addition, under setting [1], the HDL was 49.4 ± 1.9^3, the LDL is 25.3 ± 2.2^1, the TC is 90.8 ± 7.1^1 and the TG is listed as 87.7 ± 12.2^1.
For the compound theaflavin-3′-gallate, the “reducing plasma levels of TC” value was “more effective”. For the same compound, under “2 mg/kg/day”, the HDL is recorded as 49.3 ± 2.7^3, the LDL is listed as 32.4 ± 3.3^1, the TC is listed as 97.8 ± 8.5^1 and the TG is on record as 96.2 ± 10.2^1.
